Laboratory results as given in US4757139A, “5-fluoro-2'-deoxyuridine derivative, processes for preparing same and antitumor composition containing the same” (Teijin Limited, priority 1983, dated 1988).
Read-outs that look alike come from different tables or passages of the source.

Key:
[1] = Rate of hydrolysis of 5-fluoro-2'-deoxyuridine derivatives by esterase; type: in vitro ADME, porcine; details: pig, liver esterase, pH 7.00, 37° C., read-out: t 1/2 (time for 1/2 of the derivative to be converted into parent compound)
Procedure: Rate of hydrolysis of 5-fluoro-2'-deoxyuridine derivatives by esterase […] A 10 μg/ml isotonic solution of the experimental compound in a phosphate buffer (pH 7.00) was prepared and the […] (manufactured by Sigma) extracted from the porcine liver was added to the solution at 37° C. in such a way as to provide the enzyme concentration ranging from 0.03 units/ml to 150 units/ml. Then the sample (10 μl) was injected into an HPLC column periodically to determine the amount of 5-fluoro-2'-deoxyuridine release by the enzyme reaction.

[2] = tested on: mouse leukemia cells L1210; assay: Antitumor activity against mouse leukemia L1210, intraperitoneal administration; details: for Max. ILS (%) / ILS30 (dose required to increase lifespan 30%): i.p. once a day for 5 consecutive days
From the text: Antitumor activity of 5-fluoro-2'-deoxyuridine derivatives (in intraperitoneal administration)
Experiments were made with the 5-fluoro-2'-deoxyuridine derivatives of this invention in order to know its antitumor effect against mouse leukemia cells L1210 in comparison with its parent compound 5-fluoro-2'-deoxyuridine and other known antitumor agents.
BDF1 mice (male, 6-week-old, Ca 24 g, in groups of 5 mice), which were abdominally implanted with 10^5 cells of mouse leukemia L1210, which had been collected after 7-day cultivation in other mice, were used in the experiments.
The respective agents were given to the experimental mice intraperitoneally once a day for 5 consecutive days starting 24 hours after the implantation of tumor cells.
The antitumor effect of the respective agents were indicated by the rate of increase in the length of the survival period obtained from the groups given the agents in contrast with the length of the survival period of the control group (not given the agents).
The dose, which is required to increase the lifespan of the experimental mice 30% as compared with the control group, is indicated by ILS30 and the dose, which is required to effect the maximum increase of lifespan (Max. ILS(%)), is indicated by ILS max. ILS max./ILS30 is to represent the therapeutic index which indicates the safety of the agents.

[3] = Change in body weight of L1210-bearing mice, oral administration; type: in vivo, BDF1 mice; details: days 1-4
Procedure: (§1) The respective agents were administered orally three times, i.e. on the first day, third day, and fifth day, starting 24 hours after the implantation of tumor cells.

mouse leukemia L1210 = assay: Antitumor activity against mouse leukemia L1210, oral administration; type: in vivo, BDF1 mice; details: for Antitumor effect in oral administration compared with 5-fluoro-2'-deoxyuridine and 3',5'-dioctanoyl-5-fluoro-2'-deoxyuridine: L1210-bearing mice, result in words
Procedure: as §1

[4] = Release of FUdR from the compound due to the enzyme system in the plasma; type: in vitro ADME; details: 4×10^-5 M compound (FUdR 9.85 μg/ml), 20% rat plasma, pH 7.0, 37° C.
Procedure: Behavior to release FUdR from the compound due to the enzyme system in the plasma
The release rates of 5-fluoro-2'-deoxyuridine (FUdR) from the compound of this invention at 37° C. in the rat plasma (20%), diluted with 0.1M phosphate buffer, pH 7.0, were measured.
The compound of this invention was added to the plasma diluted with an isotonic solution of phosphate buffer to a concentration of 4×10^-5 M (corresponding to FUdR 9.85 μg/ml) and was incubated at 37° C. The sample (10 μl) was injected into an HPLC column periodically to determine the amount (μg/ml) of 5-fluoro-2'-deoxyuridine released by the enzymatic reaction.

[5] = pH 7, enzyme concentration 6.0 units/ml
[6] = days 1, 3, 5, dose 10 mg/kg/day
[7] = days 1, 3, 5, dose 30 mg/kg/day
[8] = days 1, 3, 5, dose 100 mg/kg/day
[9] = days 1, 3, 5, dose 300 mg/kg/day
[10] = pH 7, enzyme concentration 150.0 units/ml
[11] = pH 7, enzyme concentration 0.045 units/ml

Structure (SMILES)	Max. ILS (%) ([2]; L1210-bearing BDF1 mice)	Therapeutic index (ILS max./ILS30) ([2]; mouse, in vivo, ip)	Change in body weight (1-4 d, g/mouse) ([3]; dose 10 mg/kg/day)	Change in body weight (1-4 d, g/mouse) ([3]; dose 30 mg/kg/day)	Change in body weight (1-4 d, g/mouse) ([3]; dose 100 mg/kg/day)	ILS (%) (mouse leukemia L1210; [6])	ILS (%) (mouse leukemia L1210; [7])	ILS (%) (mouse leukemia L1210; [8])	ILS30 (dose required to increase lifespan 30%) ([2]; L1210-bearing BDF1 mice)	further results
O=C(O)CCCCC(=O)OC[C@H]1O[C@@H](n2cc(F)c(=O)[nH]c2=O)C[C@@H]1OC(=O)CCCCC(=O)O [3',5'-diadipoyl-5-fluoro-2'-deoxyuridine]	58%	20.0	–	–	–	–	–	–	–	half-life [1, 5]: 439 min; half-life ([1]; pH 7, enzyme concentration 12.0 units/ml): 216 min
CCCC(=O)OC[C@H]1O[C@@H](n2cc(F)c(=O)[nH]c2=O)C[C@@H]1OC(=O)CCC [3',5'-dibutyryl-5-fluoro-2'-deoxyuridine]	–	–	–	–	–	–	–	–	–	half-life ([1]; pH 7, enzyme concentration 0.75 units/ml): 42.4 min; half-life ([1]; pH 7, enzyme concentration 1.50 units/ml): 21.7 min
CCCCCCCCCC(=O)OC[C@H]1O[C@@H](n2cc(F)c(=O)[nH]c2=O)C[C@@H]1OC(=O)CCCCCCCCC [3',5'-didecanoyl-5-fluoro-2'-deoxyuridine]	52%	10.0	-0.8 g/mouse	-1.4 g/mouse	-2.4 g/mouse	7%	26%	15%	18 µmol·days/kg	half-life ([1]; pH 7, enzyme concentration 0.3 units/ml): 140 min; half-life ([1]; pH 7, enzyme concentration 0.6 units/ml): 72 min; Change in body weight (1-4 d, g/mouse) ([3]; dose 300 mg/kg/day): -3.8 g/mouse; Antitumor effect in oral administration compared with 5-fluoro-2'-deoxyuridine and 3',5'-dioctanoyl-5-fluoro-2'-deoxyuridine (mouse leukemia L1210): much higher antitumor effect; ILS (%) (mouse leukemia L1210; [9]): 20%; Release rate of 5-fluoro-2'-deoxyuridine ([4]; after 100 min): 4.7 µg/mL; Release rate of 5-fluoro-2'-deoxyuridine ([4]; after 200 min): 6.7 µg/mL; Release rate of 5-fluoro-2'-deoxyuridine ([4]; after 300 min): 7.8 µg/mL; Release rate of 5-fluoro-2'-deoxyuridine ([4]; after 400 min): 8.5 µg/mL; Release rate of 5-fluoro-2'-deoxyuridine ([4]; after 500 min): 9.3 µg/mL
O=C(O)CCCC(=O)OC[C@H]1O[C@@H](n2cc(F)c(=O)[nH]c2=O)C[C@@H]1OC(=O)CCCC(=O)O [3',5'-diglutaryl-5-fluoro-2'-deoxyuridine]	–	–	–	–	–	–	–	–	–	half-life [1, 10]: 437 min
CCCCCC(=O)OC[C@H]1O[C@@H](n2cc(F)c(=O)[nH]c2=O)C[C@@H]1OC(=O)CCCCC [3',5'-dihexanoyl-5-fluoro-2'-deoxyuridine, reference compound]	38%	4.3	–	–	–	–	–	–	10 µmol·days/kg	half-life [1, 11]: 32.5 min; half-life ([1]; pH 7, enzyme concentration 0.075 units/ml): 24 min; half-life ([1]; pH 7, enzyme concentration 0.15 units/ml): 10 min; Release rate of 5-fluoro-2'-deoxyuridine ([4]; after 100 min): 7.8 µg/mL; Release rate of 5-fluoro-2'-deoxyuridine ([4]; after 200 min): 9.85 µg/mL
CCCCCCCC(=O)OC[C@H]1O[C@@H](n2cc(F)c(=O)[nH]c2=O)C[C@@H]1OC(=O)CCCCCCC [3',5'-dioctanoyl-5-fluoro-2'-deoxyuridine, reference compound]	–	–	+1.8 g/mouse	+1.6 g/mouse	-2.8 g/mouse	-5%	3%	-5%	–	half-life ([1]; pH 7, enzyme concentration 0.03 units/ml): 18.2 min; half-life [1, 11]: 15.6 min; Change in body weight (1-4 d, g/mouse) ([3]; dose 300 mg/kg/day): -2.2 g/mouse; ILS (%) (mouse leukemia L1210; [9]): 5%; Release rate of 5-fluoro-2'-deoxyuridine ([4]; after 100 min): 9.85 µg/mL
CCCCCCCCCCCCCCCC(=O)OC[C@H]1O[C@@H](n2cc(F)c(=O)[nH]c2=O)C[C@@H]1OC(=O)CCCCCCCCCCCCCCC [3',5'-dipalmitoyl-5-fluoro-2'-deoxyuridine, reference compound]	55%	5.0	–	–	–	–	–	–	0.8 µmol·days/kg	–
CCC(=O)OC[C@H]1O[C@@H](n2cc(F)c(=O)[nH]c2=O)C[C@@H]1OC(=O)CC [3',5'-dipropanoyl-5-fluoro-2'-deoxyuridine]	–	–	–	–	–	–	–	–	–	half-life ([1]; pH 7, enzyme concentration 3.0 units/ml): 47.4 min; half-life [1, 5]: 24.2 min
O=C(O)CCC(=O)OC[C@H]1O[C@@H](n2cc(F)c(=O)[nH]c2=O)C[C@@H]1OC(=O)CCC(=O)O [3',5'-disuccinyl-5-fluoro-2'-deoxyuridine]	–	–	–	–	–	–	–	–	–	half-life [1, 10]: 3220 min
CCCCCCCCCCCCCC(=O)OC[C@H]1O[C@@H](n2cc(F)c(=O)[nH]c2=O)C[C@@H]1OC(=O)CCCCCCCCCCCCC [3',5'-ditetradecanoyl-5-fluoro-2'-deoxyuridine]	61%	–	-0.8 g/mouse	-1.4 g/mouse	-2.4 g/mouse	27%	33%	17%	–	Change in body weight (1-4 d, g/mouse) ([3]; dose 1 mg/kg/day): +2.2 g/mouse; Change in body weight (1-4 d, g/mouse) ([3]; dose 3 mg/kg/day): +2.0 g/mouse; Antitumor effect in oral administration compared with 5-fluoro-2'-deoxyuridine and 3',5'-dioctanoyl-5-fluoro-2'-deoxyuridine (mouse leukemia L1210): much higher antitumor effect; ILS (%) (mouse leukemia L1210; days 1, 3, 5, dose 1 mg/kg/day): 3%; ILS (%) (mouse leukemia L1210; days 1, 3, 5, dose 3 mg/kg/day): 3%
O=c1[nH]c(=O)n([C@H]2C[C@H](O)[C@@H](CO)O2)cc1F [5-fluoro-2'-deoxyuridine]	54%	–	+0.6 g/mouse	+1.8 g/mouse	-4.2 g/mouse	15%	10%	15%	200 µmol·days/kg	Change in body weight (1-4 d, g/mouse) ([3]; dose 300 mg/kg/day): -5.2 g/mouse; ILS (%) (mouse leukemia L1210; [9]): 10%; Therapeutic index (ILS max./ILS30) ([2]; i.p., L1210-bearing BDF1 mice): 2.0
